By IC50 is commonly meant the concentration at which inhibition is half-maximal.

The source of these data is US11040028B2, “Penicinotam derivative, preparation method and use thereof” (OCEAN UNIVERSITY OF CHINA, priority 2017, dated 2021).

Format in all cases: cell-based
The subject of test [1] is BHK-21 cells. The test can be described thus: Anti-fibrosis activity test: inhibition of BHK-21 cell proliferation (CCK-8). The following applies: Mesocricetus auratus, BHK-21, 48 h, CCK-8, 48 hours after administration. In outline: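 Cells plated 2×10^4 cells/mL; 24 h attach; compound dilutions, triplicate, 48 h, 37° C/5% CO2; CCK-8 2 h; A450; IR = (1−Ai/Ao)×100%; IC50 by curve fit.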

In test [2] the test system is human lung fibroblasts HFL1. The test can be described thus: Anti-fibrosis activity test: inhibition of proliferation of human lung fibroblasts HFL1 (CCK-8). The note with it: Homo sapiens, HFL1, 48 h, human lung fibroblasts HFL1, CCK-8, 48 hours. Put shortly:
(§1)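 48 h compound treatment of fibroblast-type cells seeded at 2×10^4 cells/mL, 37° C, 5% CO2; viability by CCK-8 (2 h, A450). Inhibition rate calculated against blank control, IC50 by curve fitting; pirfenidone served as reference.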

The test system of test [3] is human hepatic stellate cells LX-2. The test can be described thus: Anti-fibrosis activity test: inhibition of proliferation of human hepatic stellate cells LX-2 (CCK-8). The note with it: Homo sapiens, 48 h, human hepatic stellate cells LX-2, CCK-8, 48 hours. In outline: as §1
For test [4], the system named is human fibrosarcoma cells HT-1080. Nature of the test: Anti-fibrosis activity test: inhibition of proliferation of human fibrosarcoma cells HT-1080 (CCK-8). The note with it: Homo sapiens, HT-1080, 48 h, human fibrosarcoma cells HT-1080, CCK-8, 48 hours. Put shortly: as §1
In test [5] the test system is human dermal fibroblasts CCC-ESF-1. The test can be described thus: Anti-fibrosis activity test: inhibition of proliferation of human dermal fibroblasts CCC-ESF-1 (CCK-8). The note with it: Fibroblast; human dermal fibroblasts CCC-ESF-1, CCK-8, 48 hours. Put shortly: as §1
In test [6] the test system is human embryonic lung fibroblast IMR-90. Nature of the test: Anti-fibrosis activity test: inhibition of proliferation of human embryonic lung fibroblast IMR-90 (CCK-8). The following applies: human embryonic lung fibroblast IMR-90, CCK-8, 48 hours. Put shortly: as §1
In test [7] the test system is cardiac fibroblast RAT-iCell-C002. Nature of the test: Anti-fibrosis activity test: inhibition of proliferation of cardiac fibroblast RAT-iCell-C002 (CCK-8). The following applies: Cardiac fibroblast, 48 h, cardiac fibroblast RAT-iCell-C002, CCK-8, 48 hours. Put shortly:
as §1

The subject of test [8] is NF-κB. The test can be described thus: Immunological activity test: inhibition of NF-κB activity. The following applies: initial concentration of 30 μM; a/b isomers given as first/second symbol; read-out: IC50 (μM), inhibitory activity against NF-κB. The source says: Main references for immunological activity test of the compounds of the present application includes: Vogl, S.; Atanasov, A. G.; Binder, M.; Bulusu, M.; Zehl, M.; Fakhrudin, N.; Heiss, E. H.; Picker, P.; Wawrosch, C.; Saukel, J.; Reznicek, G.; Urban, E.; Bochkov, V.; Dirsch, V. M.; Kopp, B. J. Evid-Based Complementary Alern. Med. 2013, ID 395316. Commercially available parthenolide was utilized as a positive control.
The ability of the compounds of the present application to inhibit NF-κB activity was tested at an initial concentration of 30 μM.
The assay data for the compounds of the present application were further analyzed to determine their IC50 values.

On to `O=C1c2c(nc3cc(C(F)(F)F)ccc3c2OCc2cccc(Cl)c2)-c2cccn21` [Compound 545b, 9-((3-chlorobenzyl)oxy)-6-(trifluoromethyl)-10H-pyrrolizino[1,2-b]quinolin-10-one], for which the IC50 in test [1], in test [2], in test [3], in test [4], in test [5] and in test [6] was 0.05 to 5 mM each time. Besides, the values for the IC50 in test [7] and in test [8] were 0.05 to 5 mM and 1 to 10 µM, respectively.
As for `O=C1c2c(n(Cc3ccccc3Cl)c3cc(C(F)(F)F)ccc3c2=O)-c2cccn21` [Compound 546a, 4-(2-Chlorobenzyl)-6-(trifluoromethyl)-9H-pyrrolizino[1,2-b]quinoline-9,10(4H)-dione], the IC50 in test [1] is under 0.05 mM; in test [2], 0.05 to 5 mM; in test [3] it was 0.05 to 5 mM; in test [4] it was 0.05 to 5 mM; in test [5], 0.05 to 5 mM; in test [6], 0.05 to 5 mM. Moreover, the IC50 is 0.05 to 5 mM in test [7] and 1 to 10 µM in test [8].
Turning to `O=C1c2c(nc3cc(C(F)(F)F)ccc3c2OCc2ccccc2Cl)-c2cccn21` [Compound 546b, 9-((2-chlorobenzyl)oxy)-6-(trifluoromethyl)-10H-pyrrolizino[1,2-b]quinolin-10-one], the 50% inhibitory concentration (IC50) in test [1], in test [2], in test [3], in test [4], in test [5] and in test [6] was 0.05 to 5 mM throughout. For the same compound, the values for the IC50 in test [7] and in test [8] were 0.05 to 5 mM and 0.1 to 1 µM, respectively.
As for `O=C1c2c(n(Cc3ccc(F)cc3)c3ccc(F)cc3c2=O)-c2cccn21` [Compound 617a, 7-Fluoro-4-(4-fluorobenzyl)-9H-pyrrolizino[1,2-b]quinoline-9,10(4H)-dione], the IC50 in test [1] is under 0.05 mM; in test [2], 0.05 to 5 mM; in test [3] it was 0.05 to 5 mM; in test [4] it was 0.05 to 5 mM; in test [5], 0.05 to 5 mM; in test [6] it was 0.05 to 5 mM. Also, the IC50 in test [7] lay within 0.05 to 5 mM; in test [8], 0.1 to 1 µM.
For the compound `O=C1c2c(nc3ccc(F)cc3c2OCc2ccc(F)cc2)-c2cccn21` [Compound 617b, 7-fluoro-9-((4-fluorobenzyl)oxy)-10H-pyrrolizino[1,2-b]quinolin-10-one], the 50% inhibitory concentration (IC50) in test [1], in test [2], in test [3], in test [4], in test [5] and in test [6] was 0.05 to 5 mM each time. Further, the IC50 lay within 0.05 to 5 mM in test [7] and 1 to 10 µM in test [8].
On to `O=C1c2c(n(Cc3ccc(Cl)cc3)c3ccc(F)cc3c2=O)-c2cccn21` [Compound 618a, 4-(4-Chlorobenzyl)-7-fluoro-9H-pyrrolizino[1,2-b]quinoline-9,10(4H)-dione], for which the IC50 in test [1], in test [2], in test [3], in test [4], in test [5] and in test [6] was 0.05 to 5 mM throughout. Also, the IC50 in test [7] was 0.05 to 5 mM; in test [8] it was 1 to 10 µM.
On to `O=C1c2c(nc3ccc(F)cc3c2OCc2ccc(Cl)cc2)-c2cccn21` [Compound 618b, 9-((4-chlorobenzyl)oxy)-7-fluoro-10H-pyrrolizino[1,2-b]quinolin-10-one], for which the IC50 in test [1], in test [2], in test [3], in test [4], in test [5] and in test [6] was 0.05 to 5 mM each time. Moreover, the IC50 is 0.05 to 5 mM in test [7] and 1 to 10 µM in test [8].
Turning to `N#Cc1ccc(Cn2c3c(c(=O)c4cc(F)ccc42)C(=O)n2cccc2-3)cc1` [Compound 619a, 4-((7-Fluoro-9,10-dioxo-9H-pyrrolizino[1,2-b]quinolin-4(10H)-yl)methyl)benzonitrile], the IC50 in test [1] is 0.05 to 5 mM; in test [2], 0.05 to 5 mM; in test [3], 0.05 to 5 mM; in test [4], 0.05 to 5 mM; in test [5] it was under 0.05 mM; in test [6] it was 0.05 to 5 mM. Moreover, the IC50 in test [7] was 0.05 to 5 mM; in test [8], 1 to 10 µM.
As to `N#Cc1ccc(COc2c3c(nc4ccc(F)cc24)-c2cccn2C3=O)cc1` [Compound 619b, 4-(((7-fluoro-10-oxo-10H-pyrrolizino[1,2-b]quinolin-9-yl)oxy)methyl)benzonitrile], the IC50 is 0.05 to 5 mM in test [1]; 0.05 to 5 mM in test [2]; 0.05 to 5 mM in test [3]; 0.05 to 5 mM in test [4]; under 0.05 mM in test [5]; 0.05 to 5 mM in test [6]. Moreover, the IC50 in test [7] was in the range of 0.05 to 5 mM; in test [8] it was 1 to 10 µM.
For the compound `O=C1c2c(n(Cc3ccc(C(F)(F)F)cc3)c3ccc(F)cc3c2=O)-c2cccn21` [Compound 620a, 7-Fluoro-4-(4-(trifluoromethyl)benzyl)-9H-pyrrolizino[1,2-b]quinoline-9,10(4H)-dione], the IC50 in test [1] is under 0.05 mM; in test [2] it was 0.05 to 5 mM; in test [3], 0.05 to 5 mM; in test [4], 0.05 to 5 mM; in test [5] it was 5 to 20 mM; in test [6], 0.05 to 5 mM. The values for the IC50 in test [7] and in test [8] were 0.05 to 5 mM and 1 to 10 µM, respectively.
In the case of `O=C1c2c(nc3ccc(F)cc3c2OCc2ccc(C(F)(F)F)cc2)-c2cccn21` [Compound 620b, 7-Fluoro-9-((4-(trifluoromethyl)benzyl)oxy)-10H-pyrrolizino[1,2-b]quinolin-10-one], the IC50 in test [1] lay within 0.05 to 5 mM; in test [2] it was 0.05 to 5 mM; in test [3], 0.05 to 5 mM; in test [4] it was 0.05 to 5 mM; in test [5], 5 to 20 mM; in test [6], 0.05 to 5 mM. Also, the IC50 in test [7] lay in the range of 0.05 to 5 mM; in test [8], 1 to 10 µM.
Turning to `O=C1c2c(n(Cc3ccc(Cl)cc3F)c3ccc(F)cc3c2=O)-c2cccn21` [Compound 621a, 4-(4-Chloro-2-fluorobenzyl)-7-fluoro-9H-pyrrolizino[1,2-b]quinoline-9,10(4H)-dione], the IC50 in test [1], in test [2], in test [3], in test [4], in test [5] and in test [6] was 0.05 to 5 mM throughout. In addition, the concentration for half-maximal inhibition (IC50) in test [7] lay in the range of 0.05 to 5 mM; in test [8], 1 to 10 µM.
Regarding `O=C1c2c(nc3ccc(F)cc3c2OCc2ccc(Cl)cc2F)-c2cccn21` [Compound 621b, 9-((4-chloro-2-fluorobenzyl)oxy)-7-fluoro-10H-pyrrolizino[1,2-b]quinolin-10-one], the IC50 in test [1], in test [2], in test [3], in test [4], in test [5] and in test [6] was 0.05 to 5 mM each time. For the same compound, the IC50 lay within 0.05 to 5 mM in test [7] and 1 to 10 µM in test [8].
With `O=C1c2c(n(Cc3cc(C(F)(F)F)cc(C(F)(F)F)c3)c3ccc(F)cc3c2=O)-c2cccn21` [Compound 623a, 4-(3,5-Bis(trifluoromethyl)benzyl)-7-fluoro-9H-pyrrolizino[1,2-b]quinoline-9,10(4H)-dione], the IC50 was under 0.05 mM in test [1]; 0.05 to 5 mM in test [2]; 0.05 to 5 mM in test [3]; 0.05 to 5 mM in test [4]; under 0.05 mM in test [5]; 0.05 to 5 mM in test [6]. Further, the IC50 in test [7] lay in the range of 0.05 to 5 mM; in test [8] it was 1 to 10 µM.
